± gives the expanded uncertainty stated by the source.
Columns and labels:
[1] = Crystal; DTA
[2] = Molar enthalpy of transition or fusion; conditions: Crystal; DSC

Normal melting temperature [1]	Molar enthalpy of transition or fusion [2]	Structure (SMILES)
0.1 ± 0.7 °C	38.9 ± 1.1 kJ/mol	CCCCCCCCCCCC(=O)OCC [ethyl dodecanoate]
25.08 ± 0.7 °C	55.8 ± 1.5 kJ/mol	CCCCCCCCCCCCCCCC(=O)OCC [ethyl hexadecanoate]
34.2 ± 0.7 °C	59.8 ± 1.6 kJ/mol	CCCCCCCCCCCCCCCCCC(=O)OCC [ethyl octadecanoate]
